According to US20230127944A1, “BROAD-SPECTRUM CARBAPENEMS” (priority 2019, published 2023):
Converted amounts (≈) assume the structure as drawn.

Assays:
Assay type in all cases: cell-based
[1] = test system: S. aureus ATCC 33591 (methicillin-resistant); assay: broth microdilution MIC assay, S. aureus 33591; settings: Staphylococcus aureus, ATCC33591; S. aureus 33591, methicillin-resistant; read-out: MIC, S. aureus 33591
Method in brief: (§1)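 CLSI broth microdilution in cation-adjusted Mueller-Hinton broth: colonies from Mueller Hinton II agar grown 3-5 h at 37° C, inoculum set by OD600 to 5×10^5 CFU/mL final. Compounds in 2-fold serial dilutions; plates incubated 16-20 hours at 37° C. MIC read visually as lowest concentration without growth.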

[2] = test system: S. aureus USA 300; assay: broth microdilution MIC assay, S. aureus USA300; settings: Staphylococcus aureus; S. aureus USA300 (MRSA); read-out: MIC, S. aureus USA300
Method in brief: as §1

[3] = test system: E. coli ATCC 25922 (wild-type/QC strain); assay: broth microdilution MIC assay, E. coli 25922; settings: Escherichia coli, ATCC25922; read-out: MIC, E. coli 25922
Method in brief: as §1

[4] = test system: P. aeruginosa ATCC 27853 (wild-type/QC strain); assay: broth microdilution MIC assay, P. aeruginosa 27853; settings: Pseudomonas aeruginosa, ATCC27853; read-out: MIC, P. aeruginosa 27853
Method in brief: as §1

[5] = test system: P. aeruginosa 35151 (hyper-permeable strain); assay: broth microdilution MIC assay, P. aeruginosa 35151; settings: Pseudomonas aeruginosa, read-out: MIC, P. aeruginosa 35151
Method in brief: as §1

[6] = test system: P. aeruginosa ΔmexAB-OprM (an efflux pump knockout); assay: broth microdilution MIC assay, P. aeruginosa ΔmexAB-OprM; settings: Pseudomonas aeruginosa, read-out: MIC, P. aeruginosa ΔmexAB-OprM
Method in brief: as §1

[7] = test system: P. aeruginosa Paeβ-17; assay: broth microdilution MIC assay, P. aeruginosa Paeβ-17; settings: Pseudomonas aeruginosa, read-out: MIC, P. aeruginosa Paeβ-17
Method in brief: as §1

[8] = test system: P. aeruginosa clinical isolates; assay: expanded MIC profiling, P. aeruginosa clinical isolates; settings: Pseudomonas aeruginosa
Description: (§2) To evaluate the activity of selected example compounds against clinical isolates of target species, standard cell-based broth microdilution MIC assays were employed. A panel of 20 clinical isolates of P. aeruginosa and 20 clinical isolates of Methicillin Resistant S. aureus (MRSA) from Lankenau Medical Center (Wynnewood, Pa.) were used. In the set of P. aeruginosa isolates, the compounds were also tested in combination with a β-lactamase inhibitor (taniborbactam), to evaluate the potential benefit of inhibiting β-lactamase enzymes. The assay was conducted in Cation Adjusted Mueller Hinton Broth (CAMHB, BD #212322, BD Diagnostic Systems, Sparks, Md.). Bacteria strains were grown for 3-5 hours in CAMHB. Compounds were added to a microtiter plate in 2-fold serial dilutions in CAMHB. For plates receiving β-lactamase inhibitor, taniborbactam was added to obtain a final fixed concentration of 4 μg/mL. Once the test articles were added, the plates were inoculated according to CLSI broth microdilution method. After inoculation, the plates were incubated for 16-20 hours at 37° C. then the Minimal Inhibitory Concentration (MIC) of the test compound is determined visually. Values for concentration required to inhibit growth of […] (MIC50) and 90% (MIC90) of isolates were determined.

[9] = test system: Methicillin Resistant S. aureus (MRSA) clinical isolates; assay: expanded MIC profiling, MRSA clinical isolates; settings: Staphylococcus aureus
Description: as §2

[10] = panel of 20 P. aeruginosa clinical isolates
[11] = panel of S. aureus (MRSA) isolates of Table 5

With `C[C@@H](O)[C@H]1C(=O)N2C(C(=O)O)=C(S[C@@H]3CCN(C[C@H]4CC[C@H](NC(=N)N)CC4)C3)[C@H](C)[C@H]12` [Example 28, (4R,5S,6S)-3-(((R)-1-(((1R,4R)-4-guanidinocyclohexyl)methyl)pyrrolidin-3-yl)thio)-6-((R)-1-hydroxyethyl)-4-methyl-7-oxo-1-azabicyclo[3.2.0]hept-2-ene-2-carboxylic acid] the MIC [1] was 1 to 4 µg/mL (≈ 2.15 to 8.59 µM), the MIC [2] was 1 to 4 µg/mL (≈ 2.15 to 8.59 µM) and the MIC [3] was < 1 µg/mL. The MIC [4] was 1 to 4 µg/mL (≈ 2.15 to 8.59 µM), the MIC [5] was < 1 µg/mL and the MIC [6] was < 1 µg/mL. The MIC [7] was 8 to 32 µg/mL (≈ 17.2 to 68.7 µM), the MIC ([8]; P. aeruginosa clinical isolate Lankenau 11) was 2 µg/mL and the MIC ([8]; P. aeruginosa clinical isolate Lankenau 12) was 0.5 µg/mL. For the same compound, the MIC ([8]; P. aeruginosa clinical isolate Lankenau 13) was 0.5 µg/mL, the MIC ([8]; P. aeruginosa clinical isolate Lankenau 14) was 1 µg/mL and the MIC ([8]; P. aeruginosa clinical isolate Lankenau 15) was 1 µg/mL. For the same compound, the MIC ([8]; P. aeruginosa clinical isolate Lankenau 16) was 1 µg/mL, the MIC ([8]; P. aeruginosa clinical isolate Lankenau 17) was 1 µg/mL and the MIC ([8]; P. aeruginosa clinical isolate Lankenau 18) was 1 µg/mL. The MIC ([8]; P. aeruginosa clinical isolate Lankenau 19) was 1 µg/mL, the MIC ([8]; P. aeruginosa clinical isolate Lankenau 20) was 1 µg/mL and the MIC ([8]; P. aeruginosa clinical isolate Lankenau 21) was 1 µg/mL. It also gave an MIC ([8]; P. aeruginosa clinical isolate Lankenau 22) of 1 µg/mL, an MIC ([8]; P. aeruginosa clinical isolate Lankenau 23) of 2 µg/mL and an MIC ([8]; P. aeruginosa clinical isolate Lankenau 24) of 2 µg/mL. The MIC ([8]; P. aeruginosa clinical isolate Lankenau 25) was 2 µg/mL, the MIC ([8]; P. aeruginosa clinical isolate Lankenau 26) was 2 µg/mL and the MIC ([8]; P. aeruginosa clinical isolate Lankenau 27) was 2 µg/mL. For the same compound, the MIC ([8]; P. aeruginosa clinical isolate Lankenau 28) was 8 µg/mL, the MIC ([8]; P. aeruginosa clinical isolate Lankenau 29) was 16 µg/mL and the MIC ([8]; P. aeruginosa clinical isolate Lankenau 30) was 32 µg/mL. It also gave an MIC50 [8, 10] of 1 µg/mL, an MIC90 [8, 10] of 8 µg/mL and an MIC ([9]; ATCC 33591 / MRSA, S. aureus ATCC-33591) of 2 µg/mL. The MIC ([9]; MRSA, S. aureus clinical isolate LH-SA3) was 0.5 µg/mL, the MIC ([9]; MRSA, S. aureus clinical isolate LH-SA9) was 0.5 µg/mL and the MIC ([9]; MRSA, S. aureus clinical isolate LH-SA23) was 0.5 µg/mL. For the same compound, the MIC ([9]; MRSA, S. aureus clinical isolate LH-SA24) was 0.5 µg/mL, the MIC ([9]; MRSA, S. aureus clinical isolate LH-SA26) was 0.5 µg/mL and the MIC ([9]; MRSA, S. aureus clinical isolate LH-SA29) was 2 µg/mL. It also gave an MIC ([9]; MRSA, S. aureus clinical isolate LH-SA33) of 2 µg/mL, an MIC ([9]; MRSA, S. aureus clinical isolate LH-SA34) of 4 µg/mL and an MIC ([9]; MRSA, S. aureus clinical isolate LH-SA37) of 0.25 µg/mL. For the same compound, the MIC ([9]; MRSA, S. aureus clinical isolate LH-SA38) was 4 µg/mL, the MIC ([9]; MRSA, S. aureus clinical isolate LH-SA39) was 2 µg/mL and the MIC ([9]; MRSA, S. aureus clinical isolate LH-SA40) was 2 µg/mL. The MIC ([9]; MRSA, S. aureus clinical isolate LH-SA41) was 2 µg/mL, the MIC ([9]; MRSA, S. aureus clinical isolate LH-SA42) was 0.5 µg/mL and the MIC ([9]; MRSA, S. aureus clinical isolate LH-SA44) was 4 µg/mL. It also gave an MIC ([9]; MRSA, S. aureus clinical isolate LH-SA45) of 16 µg/mL, an MIC ([9]; MRSA, S. aureus clinical isolate LH-SA48) of 0.5 µg/mL and an MIC ([9]; MRSA, S. aureus clinical isolate LH-SA49) of 0.5 µg/mL. The MIC ([9]; MRSA, S. aureus clinical isolate LH-SA50) was 0.5 µg/mL, the MIC50 [9, 11] was 0.5 µg/mL and the MIC90 [9, 11] was 4 µg/mL.
